# Laboratory results as given in publication PMC11109052, “Metabolism characterization and toxicity of N-hydap, a marine candidate drug for lung cancer therapy by LC–MS method” (Natural Products and Bioprospecting, 2024).
# Columns and labels:
# [1] = tested on: Cyp1a2; assay: Western blot protein level after 7 days gavage: CYP1A2; type: in vivo, mice; set-up: key to CYP1A2 Protein expression: ↑: up-regulation; ↓: down-regulation; –: no change
# Method: (§1) Mice were randomly divided into four groups, with eight animals in each group. The mice received oral pretreatment with N-hydap for 7 days at doses of 2, 5, and 10 mg/kg/day, which were considered as the low dose, medium dose, and high dose, respectively. Correspondingly, the control group received PBS. On the 8th day, the liver and kidneys were removed, and organs from eight mice per group were combined to prepare MLMs and MKMs using the detailed procedures above. Subsequently, we determined the activity of CYP and UGT enzymes by specific substrate metabolized with MLMs (0.5 mg/mL) and MKMs (0.2 mg/mL) in vitro. Specifically, the following selective substrates were used for the respective enzymes: PH (1 μM) for CYP1A2, DIC (1 μM) for CYP2C9, MP (90 μM) for CYP2C19, DM (1 μM) for CYP2D6, CZX (10 μM) for CYP2E1, Tes (1 μM) for CYP3A4, SN38 (1 μM) for UGT1A1, CACD (100 μM) for UGT1A3, Sero (20 μM) for UGT1A6, and Prop (1 μM) for UGT1A9. All substrates were dissolved in methanol or DMSO. The incubation procedure was carried out as mentioned above, and the reaction was terminated with VER (20 ng/mL) in ESI+ mode and CLP (200 ng/mL) in ESI− mode. In the ex vivo experiments, the activity of enzymes was measured by quantifying the production of various metabolites (nM/mg protein/min). The metabolites and their corresponding enzymes are as follows: APAP from PH, 4-OH-DIC from DIC, 4-OH-MP from MP, DXO from DM, 6-OH-CZX from CZX, 6-OH-Tes from Tes, SN38-G from SN38, CACD-G from CACD, Sero-G from Sero, Prop-G from Prop. The measurements were performed using multiple reaction monitoring (MRM) transitions, which are specific mass spectrometry transitions used for quantification. […]
# After 7 days of N-hydap gavage, the liver and kidney tissues were lysed using RIPA buffer supplemented with a 1% protease inhibitor cocktail. […] Western blot signals were detected using an ECL chemiluminescence detection agent. The relative intensity of each protein band was scanned and quantified using Image J software.
# [2] = tested on: Cyp2c39; assay: Real-time PCR mRNA level after 7 days gavage: Cyp2c39 (human homolog CYP2C19); type: in vivo, mice; set-up: key to CYP2C19 mNA expression: ↑: up-regulation; ↓: down-regulation; –: no change
# Method: as §1
# Total RNA from liver and kidney samples taken after 7 days of N-hydap gavage was extracted using the Animal Total RNA Isolation Kit (Foregene, Chengdu, Sichuan, China) following the manufacturer’s instructions. The concentrations of total RNA were determined by a nucleic acid concentration tester at 260/280 nm. […]
smiles,measurement,setting,value
"CC1CCC2C(C=CC(C)C2C(=O)c2c(O)c(C3(O)CCC(O)C4OC43)cn(O)c2=O)C1 (stereo not drawn) [N-hydap, N-Hydroxyapiosporamide]",CYP1A2 Protein expression,[1]; Kidney,↑
same,up-regulation of protein levels of CYP1A2,"[1]; mice, 10 mg/kg p.o. 7 days, kidney",117%
same,decrease of protein levels of CYP1A2,"[1]; mice, p.o. 7 days, liver",68%
same,CYP2C19 mNA expression,[2]; Kidney,↓
same,CYP2C19 mNA expression,[2]; Liver,↓
same,mRNA levels of Cyp2c39,"[2]; mice, 2, 5, 10 mg/kg p.o. 7 days, liver and kidneys",slight reduction
